Measured values from article PMC7377239, “Cardiovascular Effects of Polychlorinated Biphenyls and Their Major Metabolites” (Environmental Health Perspectives, 2020).
Like-named read-outs stand apart in the source and are kept apart here.

Test system: iCell cardiomyocytes (human iPSC-derived cardiomyocytes)
Assay: Intracellular Ca2+ flux / beating parameters in iCell cardiomyocytes (FLIPR tetra), 90 min or 24 h
Type: cell-based
Conditions: Homo sapiens, Cardiomyocyte, 0.00 µM = 100.00; for activity at 0.1 µM: 0.10 µM
Summary of the method: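 PODs were defined as the concentration crossing one SD of the vehicle-control means (0.5% DMSO) on four-parameter logistic fits of Ca2+ trace metrics (peak height, frequency, peak-spacing CV, decay/rise ratio). Traces came from 100 s, 8 Hz FLIPR reads at 37 °C on calcium-dye-loaded iCell cardiomyocytes. Before reading, cells were treated for 90 min or 24 h from 5× chemical plates spanning 0.05–500 µM, in triplicate.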

[1] = 1.5 h, 90min, read-out: cm.amp.avg.90min
[2] = 1.5 h, 90min, read-out: cm.amp.cv.90min
[3] = 1.5 h, 90min, read-out: cm.bpm.90min
[4] = 1.5 h, 90min, read-out: cm.decay.rise.90min
[5] = 1.5 h, 90min, read-out: cm.spacing.cv.90min
[6] = 24 h, 24hrs, read-out: cm.amp.avg.24hrs
[7] = 24 h, 24hrs, read-out: cm.amp.cv.24hrs
[8] = 24 h, 24hrs, read-out: cm.bpm.24hrs
[9] = 24 h, 24hrs, read-out: cm.decay.rise.24hrs
[10] = 24 h, 24hrs, read-out: cm.spacing.cv.24hrs

Which results are given for Oc1cc(Cl)c(-c2cc(Cl)ccc2Cl)cc1Cl [4-OH PCB52]?
activity at 0.01 µM [1]: 107%; activity at 0.01 µM [2]: 94.5%; activity at 0.01 µM [3]: 97.8%; activity at 0.01 µM [4]: 98.4%; activity at 0.01 µM [5]: 115%; activity at 0.1 µM [1]: 103%; activity at 0.1 µM [2]: 96.5%; activity at 0.1 µM [3]: 99.1%; activity at 0.1 µM [4]: 96.6%; activity at 0.1 µM [5]: 104%; activity at 1 µM [1]: 110%; activity at 1 µM [2]: 99.2%; activity at 1 µM [3]: 91.5%; activity at 1 µM [4]: 99.2%; activity at 1 µM [5]: 108%; activity at 10 µM [1]: 105%; activity at 10 µM [2]: 100%; activity at 10 µM [3]: 58.9%; activity at 10 µM [4]: 114%; activity at 10 µM [5]: 102%; activity at 100 µM [1]: 0%; activity at 100 µM [2]: 0%; activity at 100 µM [3]: 0%; activity at 100 µM [4]: 0%; activity at 100 µM [5]: 0%; activity at 0.01 µM [6]: 125%; activity at 0.01 µM [7]: 96.2%; activity at 0.01 µM [8]: 105%; activity at 0.01 µM [9]: 93.1%; activity at 0.01 µM [10]: 102%; activity at 0.1 µM [6]: 79.9%; activity at 0.1 µM [7]: 128%; activity at 0.1 µM [8]: 95.5%; activity at 0.1 µM [9]: 89.2%; activity at 0.1 µM [10]: 94%; activity at 1 µM [6]: 112%; activity at 1 µM [7]: 79.4%; activity at 1 µM [8]: 86.9%; activity at 1 µM [9]: 101%; activity at 1 µM [10]: 82.1%; activity at 10 µM [6]: 80.2%; activity at 10 µM [7]: 113%; activity at 10 µM [8]: 86.9%; activity at 10 µM [9]: 104%; activity at 10 µM [10]: 96.7%; activity at 100 µM [6]: 0%; activity at 100 µM [7]: 0%; activity at 100 µM [8]: 0%; activity at 100 µM [9]: 0%; activity at 100 µM [10]: 0%
